Laboratory results published in US20240067733A1, “COMPOSITIONS AND METHODS FOR TARGETING AND KILLING ALPHA-V BETA-3-POSITIVE CANCER STEM CELLS (CSCS) AND TREATING DRUG RESISTANT CANCERS” (THE REGENTS OF THE UNIVERSITY OF CALIFORNIA, priority 2017, published 2024).

How the values were obtained:
[1] = tested on: HCC827 (β3−, GFP+, luciferase+) cells; test: Orthotopic lung adenocarcinoma model and CTC isolation; assay type: in vivo, nu/nu mice
Protocol: The pre-treatment group mice were sacrificed in week 8 for CTC analysis. […] Whole blood (0.5 mL/mouse) was collected in EDTA tubes, and PBMCs including CTCs were isolated using Lymphoprep™ ([…] Technologies, 85415) and SepMate™ ([…] Technologies, 07801) following the manufacturer's protocol. Isolated cells were washed with PBS, plated on poly-L-Lysine (Sigma, P1399) coated 8-well chamber plates, fixed with 4% PFA (VWR, AA43368-9M), and stained with DAPI (Life Technologies, D1306, 1 μg/mL in 1% BSA in PBS), LM609 (5 μg/mL in 1% BSA in PBS), and a fluorescently-labeled secondary antibody (Thermo, A21235, 1:500). The cells were analyzed utilizing Nikon Eclipse C2™ confocal microscope (Nikon). CTCs were defined as DAPI and GFP double positive cells. The numbers of αvβ3-positive and -negative CTCs per mouse were counted. After sacrificing the mice, the tumor mass volume in the lungs were also measured utilizing an OV100™ fluorescence imaging system (Olympus).

[2] = tested on: PC9 (β3−) subcutaneous xenograft; test: PC9 subcutaneous xenograft treated with erlotinib; assay type: in vivo, mice; settings: erlotinib n=1 vs vehicle n=1, measured weekly
[3] = tested on: tumor-associated macrophages (TAMs); test: Quantification of TAMs in xenograft tumor tissues; assay type: in vivo, nu/nu mice; settings: erlotinib vs vehicle, after 50 days of treatment
Protocol: TAMs were isolated from tumor tissues as previously described (4). Snap frozen tumor tissues were thawed, minced, and dissociated in HBSS containing collagenase IV (Sigma, C5138, 0.5 mg/mL), hyaluronidase (Sigma, H2654, 0.1 mg/mL), dispase 11 (Roche, 04942078001, 0.6 U/mL), and DNase IV (Millipore, 260913-10MU, 5 U/mL) at 37° C. for 15 minutes. Cell suspensions were filtered through 70 μm cell strainer and washed with PBS. Single cell suspensions (10^6 cells/100 μL in 5% BSA in PBS) were incubated with Mouse BD Fc Block™ (BD Biosciences, 553142, 1:50) for 10 minutes at 4° C. and fluorescently labeled antibodies, CD11b (eBioscience, 17-0112-81, 1:100), Ly-6G (eBioscience, 25-5931, 1:100), CD206 (BioRad, MCA2235PET), and MHC11 (BD Biosciences, 562928) for one hour at 4° C. Flow cytometry was performed on BD LSRFortessa™, and the ratio of TAMs (CD11b-positive, Ly-6G-negative), M1 (CD206-negative, MHC11-positive within TAMs), and M2 (non-M1 population within TAMs) in the tumor tissue was calculated using the flow cytometry analysis program FlowJo™ (Treestar).

HCC827 (β3−) xenograft = test: Erlotinib resistant lung adenocarcinoma xenograft model (HCC827 subcutaneous); settings: erlotinib-resistant tumors vs vehicle group
Protocol: Briefly, HCC827 (5×10^6 tumor cells in 100 μl of RPMI) cells were subcutaneously injected to the right flank of female nu/nu mice (8-10 weeks old). Tumors were measured twice per week with calipers (tumor volume (mm 3)=length×width×width/2). […] Tumor tissues were divided into three pieces for snap freezing, freezing in OCT compound (VWR, 25608-930), or 10% formalin fixation (Fisher Scientific, 23-313095) for further analyses.
Immunohistochemical staining was performed on unstained FFPE slides according to the manufacturers recommendations for the VECTASTAIN Elite ABC HRP Kit (Vector Laboratories, PK-6100). An anti-integrin β3 antibody (Cell Signaling, 13166, 1:200) and a biotinylated goat anti-rabbit antibody (Vector Laboratories, BA-1000, 1:200) were used. The stained tissues were imaged on NanoZoomer Slide Scanning System™ (Hamamatsu), and the β3-positive area fraction with respect to tumor tissue was calculated utilizing ImageJ (MH) (5).

HCC827-ErlR = tested on: HCC827-ErlR
Protocol: (§1) Cells were plated in 96-well plates, and after appropriate treatments, the cells were incubated in MTT solution (Sigma, M2128, 0.5 mg/mL in growth media) for two hours at 37° C. Then, the MTT solution was removed, and the blue crystalline precipitate in each well was dissolved in DMSO. Visible absorbance of each well at 560 nm was quantified using a microplate reader.

PC9 ErlR cells = settings: cells from erlotinib treated (ErlR) vs vehicle treated animal
Protocol: as §1

solid tumors = settings: patients with solid tumors; cited from earlier work
integrin αvβ3 = integrin αvβ3 (Homo sapiens, UniProt P05106+P06756); settings: in vitro; cited from earlier work
integrin αvβ3, sequence (P06756 31-889 limits assumed): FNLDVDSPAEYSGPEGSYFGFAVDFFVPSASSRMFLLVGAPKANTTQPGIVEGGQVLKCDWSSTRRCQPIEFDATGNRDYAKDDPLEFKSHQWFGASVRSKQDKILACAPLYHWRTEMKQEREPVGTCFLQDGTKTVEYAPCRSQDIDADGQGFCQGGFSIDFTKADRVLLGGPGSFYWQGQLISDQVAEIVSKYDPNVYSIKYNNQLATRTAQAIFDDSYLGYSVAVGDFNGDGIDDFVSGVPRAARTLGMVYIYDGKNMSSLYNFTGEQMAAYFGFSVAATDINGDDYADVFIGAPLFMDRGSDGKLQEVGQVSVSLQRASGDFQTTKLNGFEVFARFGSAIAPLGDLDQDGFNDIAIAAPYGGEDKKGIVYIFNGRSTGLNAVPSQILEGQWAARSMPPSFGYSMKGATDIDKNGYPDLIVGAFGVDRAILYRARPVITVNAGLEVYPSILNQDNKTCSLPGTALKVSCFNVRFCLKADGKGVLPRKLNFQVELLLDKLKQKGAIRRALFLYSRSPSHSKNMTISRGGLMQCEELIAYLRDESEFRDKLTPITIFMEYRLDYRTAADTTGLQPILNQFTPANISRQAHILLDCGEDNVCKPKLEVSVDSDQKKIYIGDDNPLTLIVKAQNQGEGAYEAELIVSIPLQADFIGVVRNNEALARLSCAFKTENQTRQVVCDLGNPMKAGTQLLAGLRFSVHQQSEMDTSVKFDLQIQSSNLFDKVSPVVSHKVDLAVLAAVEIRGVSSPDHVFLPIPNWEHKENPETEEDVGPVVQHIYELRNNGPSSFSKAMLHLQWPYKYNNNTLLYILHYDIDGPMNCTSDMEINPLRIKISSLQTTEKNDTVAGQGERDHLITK
integrin αvβ3, sequence (P06756 891-1048 limits assumed): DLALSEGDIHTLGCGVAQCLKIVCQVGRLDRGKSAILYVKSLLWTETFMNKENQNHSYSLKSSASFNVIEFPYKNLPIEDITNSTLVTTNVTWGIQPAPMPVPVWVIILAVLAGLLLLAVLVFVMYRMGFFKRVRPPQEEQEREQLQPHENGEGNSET
integrin αvβ3, sequence (P05106 27-788): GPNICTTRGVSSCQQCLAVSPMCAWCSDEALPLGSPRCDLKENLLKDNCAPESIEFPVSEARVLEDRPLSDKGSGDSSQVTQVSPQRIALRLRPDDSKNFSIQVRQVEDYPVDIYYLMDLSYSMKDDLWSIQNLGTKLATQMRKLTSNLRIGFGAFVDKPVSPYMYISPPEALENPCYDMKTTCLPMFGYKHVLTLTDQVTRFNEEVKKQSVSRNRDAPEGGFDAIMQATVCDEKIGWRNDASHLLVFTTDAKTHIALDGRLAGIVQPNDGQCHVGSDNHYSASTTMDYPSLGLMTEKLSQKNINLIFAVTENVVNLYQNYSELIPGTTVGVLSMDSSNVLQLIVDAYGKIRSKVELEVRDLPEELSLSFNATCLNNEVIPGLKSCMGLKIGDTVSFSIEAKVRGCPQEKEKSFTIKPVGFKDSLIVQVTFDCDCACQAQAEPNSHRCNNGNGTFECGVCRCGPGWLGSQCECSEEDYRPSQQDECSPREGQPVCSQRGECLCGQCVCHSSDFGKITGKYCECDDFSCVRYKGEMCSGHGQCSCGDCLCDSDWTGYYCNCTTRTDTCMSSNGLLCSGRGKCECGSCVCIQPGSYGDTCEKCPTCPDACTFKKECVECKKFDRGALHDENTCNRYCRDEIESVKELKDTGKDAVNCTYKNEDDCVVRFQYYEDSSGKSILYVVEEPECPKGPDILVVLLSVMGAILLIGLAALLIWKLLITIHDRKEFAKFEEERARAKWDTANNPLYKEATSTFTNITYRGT

C#Cc1cccc(Nc2ncnc3cc(OCCOC)c(OCCOC)cc23)c1 [erlotinib]
number of CTCs ([1]; erlotinib for 30 days vs pre-treatment): sharp increase in the number of CTCs
αvβ3 status of CTCs ([1]; following erlotinib treatment): vast majority of the CTCs detected following erlotinib treatment were αvβ3 positive
tumor growth [2]: gained resistance
number of TAMs, particularly M2 type, in tumors [3]: higher number of TAMs
expression of integrin αvβ3 in tumors (HCC827 (β3−) xenograft): enriched in the erlotinib-resistant tumors compared to the vehicle group

C=CC(=O)Nc1cc(Nc2nccc(-c3cn(C)c4ccccc34)n2)c(OC)cc1N(C)CCN(C)C [osimertinib]
cell viability, sensitivity to EGFR inhibitor (HCC827-ErlR): also resistant
cell viability (MTT), sensitivity to EGFR inhibitor (PC9 ErlR cells): osimertinib resistant

B1: etaracizumab: a humanized and affinity-matured form of LM609 (antibody, chains of the INN, looked up, V domains shown)
VH: QVQLVESGGGVVQPGRSLRLSCAASGFTFSSYDMSWVRQAPGKGLEWVAKVSSGGGSTYYLDTVQGRFTISRDNSKNTLYLQMNSLRAEDTAVYYCARHLHGSFASWGQGTTVTVSS
VL: EIVLTQSPATLSLSPGERATLSCQASQSISNFLHWYQQRPGQAPRLLIRYRSQSISGIPARFSGSGSGTDFTLTISSLEPEDFAVYYCQQSGSWPLTFGGGTKVEIK
clinical activity (solid tumors): showed clinical activity in some patients
antibody-dependent cell mediated cytotoxicity (ADCC) (integrin αvβ3): reported to mediate antibody-dependent cell mediated cytotoxicity (ADCC) in vitro
